{"source": "patent US8450305B2", "about": "“Macrocyclic compounds useful as inhibitors of kinases and HSP90” (Universite de Strasbourg, priority 2006, dated 2013)", "key": {"HER-2": {"system": "HER-2", "details": "HER-2 degradation assay; cited from earlier work"}, "ErbB2": {"system": "ErbB2", "test": "Degradation of HSP90 client protein ErbB2 in SK-BR3, Western blotting", "assay_type": "cell-based", "details": "Homo sapiens; for EC50: read-out: EC50, degradation of ErbB2", "source_text": "Thus, after 18 hrs treatment with the compounds, the whole cell protein lysates were obtained, protein concentrations were normalized and the concentration of ErbB2 was quantified by Western blotting (C. Chavany et al J. Biol. Chem. 271:4974-4977 (1996))."}, "SK-BR-3 tumor cells": {"system": "SK-BR-3 tumor cells", "test": "Cytotoxicity, MTS assay, SK-BR-3", "assay_type": "cell-based", "details": "Homo sapiens, 72 hours", "procedure": "(§1) Tumor cells were grown as adherent monolayers at 37° C. in a humidified atmosphere (5% CO2, 95% air). The culture medium was RPMI 1640 containing 2 mM L-glutamine (Ref BE12-702F, Cambrex, Verviers, Belgium) and supplemented with 10% fetal bovine serum (Ref DE14-801E, Cambrex). For experimental use, the adherent tumour cells were detached from the culture flask by a 5-minute treatment with trypsin-versene (Ref O2-007E, Cambrex), diluted in Hanks' medium without calcium or magnesium (Ref BE10-543F, Cambrex) and neutralized by addition of complete culture medium. Before use, cells were counted in a hemocytometer and their viability were assessed by 0.25% trypan blue exclusion. Mycoplasma detection was performed using the MycoAlert® Mycoplasma Detection Kit (Ref LT07-318, Cambrex) in accordance with the manufacturer instructions. The MycoAlert®Assay is a selective biochemical test that exploits the activity of mycoplasmal enzymes. The viable mycoplasma are lysed and the enzymes react with the MycoAlert® substrate catalyzing the conversion of ADP to ATP. By measuring the level of ATP in a sample both before and after the addition of the MycoAlert® substrate a ratio can be obtained which is indicative of the presence or absence of mycoplasma. The mycoplasma test was assayed in duplicate from the culture supernatants of the cell lines and compared to negative and positive controls (MycoAlert® Assay Control Set, Ref LT07-518, Cambrex) (Internal Standard Operating Procedure No TEC-007/002). Both HCC1954 and SK-BR-3 tumour cells (5,000 cells per well) were plated in 96-well flat-bottom microtitration plates (Ref 167008, Nunc, Dutscher, Brumath, France) and incubated at 37° C. for 24 hours before treatment in 190 μl of drug-free culture medium supplemented with 10% FBS. Both HCC1954 and SK-BR-3 tumour cell lines were incubated for 72 hours with […], in ¼ dilution steps, of the test substances (ranging from […]) to be tested as well as paclitaxel (ranging from 10^−7 to 10^−12 M). The cells (190 μl) will be incubated in a 200 μl final volume of culture medium supplemented with 10% FBS containing test substances at 37° C. under 5% CO2. One experiment is performed, each concentration being issued from quadruplicate. Control cells are treated with corresponding vehicle alone. At the end of treatments, the cytotoxic activity is evaluated by a MTS assay. […] Like MTT, MTS is bioreduced by cells into a formazan product that is directly soluble in culture medium without processing, unlike MTT.\n(§2) At the end of the cells treatment, 40 μl of a 0.22 μm filtered freshly combined solution of MTS (20 ml at 2 mg/ml, Ref G1111A, Promega, Charbonnières, France) and PMS (1 ml at 0.92 mg/ml, Ref P9625, Sigma) in Dulbecco's Phosphate Buffered Saline (DPBS, Ref 17-513F, Cambrex), were added in each well. Culture plates were incubated for 2 h at 37° C. Absorbency (OD) will be measured at 490 nm in each well using VICTOR^3™ 1420 multilabeled counter (Wallac, PerkinElmer, Courtaboeuf, France)."}, "HCC1954 cells": {"system": "HCC1954 cells", "test": "Antitumor activity, HCC1954 induced tumors in CB17/SCID mice", "assay_type": "in vivo", "procedure": "The compounds of the invention were evaluated for antitumor activity in mice. Tumors were induced […] in healthy CB17/SCID mice by injecting HCC1954 cells into the right flank of 70 mice. Once the induced tumors were an average size of […], the mice were treated with compound a2-1 at 25 mg/kg, 50 mg/kg and 100 mg/kg. Controls of vehicle alone and Herceptin® at 10 mg/kg were utilized."}, "HCC1954 tumor cells": {"system": "HCC1954 tumor cells", "test": "Cytotoxicity, MTS assay, HCC1954", "assay_type": "cell-based", "details": "Homo sapiens, 72 hours", "procedure": "as §1, §2"}, "[1]": {"test": "Maximum tolerated dose in healthy CB17/SCID mice", "assay_type": "in vivo", "procedure": "Three healthy CB17/SCID mice were treated with compound 2a-1 at 25 mg/kg, 50 mg/kg and 100 mg/kg once daily for five consecutive days."}, "VEGF-R2": {"target": "T1, VEGF-R2 (Homo sapiens, UniProt P35968)", "T1 construct": "host or cells: Sf9 insect cells (baculovirus)", "T1 sequence (P35968 20-1356)": "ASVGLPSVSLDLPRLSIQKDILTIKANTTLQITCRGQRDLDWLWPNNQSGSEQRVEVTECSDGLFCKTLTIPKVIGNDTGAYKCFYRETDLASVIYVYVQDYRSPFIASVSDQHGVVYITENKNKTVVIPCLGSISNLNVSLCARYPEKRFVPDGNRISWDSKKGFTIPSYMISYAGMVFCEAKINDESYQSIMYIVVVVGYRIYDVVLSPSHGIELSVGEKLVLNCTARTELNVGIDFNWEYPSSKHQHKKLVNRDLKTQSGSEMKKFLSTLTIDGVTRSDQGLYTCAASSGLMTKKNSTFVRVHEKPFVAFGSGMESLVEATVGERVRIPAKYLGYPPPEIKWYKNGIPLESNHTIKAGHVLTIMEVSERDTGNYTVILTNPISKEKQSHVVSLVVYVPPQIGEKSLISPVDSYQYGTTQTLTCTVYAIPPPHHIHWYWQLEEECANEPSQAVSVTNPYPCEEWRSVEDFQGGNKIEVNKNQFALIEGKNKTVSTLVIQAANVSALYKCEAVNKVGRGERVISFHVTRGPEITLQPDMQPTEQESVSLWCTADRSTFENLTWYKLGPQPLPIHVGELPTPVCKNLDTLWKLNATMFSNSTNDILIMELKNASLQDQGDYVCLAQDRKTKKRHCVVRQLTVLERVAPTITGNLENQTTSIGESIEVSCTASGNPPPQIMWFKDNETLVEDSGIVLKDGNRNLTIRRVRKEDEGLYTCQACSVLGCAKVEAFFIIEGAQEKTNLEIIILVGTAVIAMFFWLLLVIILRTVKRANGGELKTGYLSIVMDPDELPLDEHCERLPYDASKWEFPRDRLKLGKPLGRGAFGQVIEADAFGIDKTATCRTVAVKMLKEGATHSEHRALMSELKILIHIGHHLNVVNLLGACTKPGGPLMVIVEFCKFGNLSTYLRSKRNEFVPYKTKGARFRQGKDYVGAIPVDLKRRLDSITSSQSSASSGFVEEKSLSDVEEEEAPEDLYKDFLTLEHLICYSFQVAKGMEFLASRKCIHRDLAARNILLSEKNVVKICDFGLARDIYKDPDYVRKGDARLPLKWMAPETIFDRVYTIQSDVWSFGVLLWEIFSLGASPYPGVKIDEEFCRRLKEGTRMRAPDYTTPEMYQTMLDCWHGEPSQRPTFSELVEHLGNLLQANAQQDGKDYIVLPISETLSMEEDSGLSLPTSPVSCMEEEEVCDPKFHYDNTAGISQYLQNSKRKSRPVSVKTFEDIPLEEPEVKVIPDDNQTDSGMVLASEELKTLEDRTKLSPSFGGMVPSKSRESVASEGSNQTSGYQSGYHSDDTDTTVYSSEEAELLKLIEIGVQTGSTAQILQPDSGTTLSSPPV", "test": "Radiometric protein kinase assay, VEGF-R2", "assay_type": "biochemical", "details": "1 μM ATP; read-out: Inhibitory activity (IC50:μM) VEGF-R2", "source_text": "(§3) All protein kinases were expressed in Sf9 insect cells as human recombinant GST-fusion proteins or His-tagged proteins by means of the baculovirus expression system. Kinases were purified by affinity chromatography using either GSH-agarose (Sigma) or Ni-NTH-agarose (Qiagen). The purity of each kinase was checked by SDS-PAGE/silver staining and the identity of each kinase was verified by western blot analysis with kinase specific antibodies or by mass spectroscopy.\nA radiometric protein kinase assay (^33PanQinase® Activity Assay) was used for measuring the kinase activity of the 24 protein kinases. All kinase assays were performed in 96-well FlashPlates™ from Perkin Elmer (Boston, Mass., USA) in a 50 μl reaction volume. The reaction cocktail was pipetted in 4 steps in the following order: • 20 μl of assay buffer • 5 μl of ATP solution (in H2O) • 5 μl of test compound (in 10% DMSO) • 10 μl of substrate/10 […] of enzyme solution (premixed)\n(§4) The assay for all enzymes contained 60 mM HEPES-NaOH, pH 7.5, 3 mM MgCl2, 3 mM MnCl2, 3 μM Na-orthovanadate, 1.2 mM DTT, 50 μg/ml PEG20000, 1 μM [γ-^33P]-ATP (approx. 5×10^05 cpm per well).\nFor the 24 kinase assays, the following amounts of enzyme and substrate were used per well:\n(§5) The reaction cocktails were incubated at 30° C. for 80 minutes. The reaction was stopped with 50 μl of 2% (v/v) H3PO4, plates were aspirated and washed two times with 200 μl of 0.9% (w/v) NaCl or 200 μl H2O. Incorporation of ^33Pi was determined with a microplate scintillation counter (Microbeta Trilux, Wallac).\n(§6) The median value of the counts in column 1 (n=8) of each assay plate was defined as “low control”. This value reflects unspecific binding of radioactivity to the plate in the absence of a protein kinase but in the presence of the substrate. The median value of the counts in column 7 of each assay plate (n=8) was taken as the “high control”, i.e. full activity in the absence of any inhibitor. The difference between high and low control was taken as 100% activity.\n(§7) As part of the data evaluation the low control value from a particular plate was subtracted from the high control value as well as from all 80 “compound values” of the corresponding plate. The residual activity (in %) for each well of a particular plate was calculated by using the following formula: Res. Activity (%)=100×[(cpm of compound−low control)/(high control−low control)]\nThe residual activities for each concentration and the compound IC50 values were calculated using Quattro Workflow V2.1.0.0 (Quattro Research GmbH, Munich, Germany; www.quattro-research.com). The model used was “Sigmoidal response (variable slope)” with parameters “top” fixed at 100% and “bottom” at 0%."}, "panel of 24 kinase": {"system": "panel of 24 kinase", "test": "Radiometric protein kinase assay (33PanQinase), panel of 24 kinases", "assay_type": "biochemical, human", "details": "for inhibition in a panel of 24 kinase: at 10 μM", "source_text": "as §3\nA radiometric protein kinase assay (^33PanQinase® Activity Assay) was used for measuring the kinase activity of the 24 protein kinases.\nas §4, §5, §6, §7"}, "tumor xenograft models": {"system": "tumor xenograft models", "details": "in vivo; cited from earlier work"}, "[2]": {"details": "cited from earlier work"}, "HSP90 [3]": {"target": "T2, HSP90 (Homo sapiens, UniProt P07900)", "test": "HSP90 affinity, competition assay with geldanamycin", "assay_type": "binding"}, "HSP90 [4]": {"target": "T2, HSP90", "details": "reported; read-out: inhibitor of HSP90; cited from earlier work"}}, "note": "Like-named read-outs stand apart in the source and are kept apart here."}
{"smiles": "CCCCn1c(Cc2cc(OC)c(OC)c(OC)c2)nc2c(N)ncnc21", "note": "[PU3]", "values": [{"measurement": "IC50", "setting": "HER-2", "value": 40000, "unit": "nM"}]}
{"smiles": "O=C1OCC/C=C/CC/C=C/C(=N/OCC(=O)N2CCCCC2)Cc2c(Cl)c(O)cc(O)c21", "note": "[2a-1]", "values": [{"measurement": "EC50", "setting": "ErbB2; SK-BR-3, SK-BR3, 18 hrs treatment, Western blotting", "value": 26, "unit": "nM"}, {"measurement": "EC50", "setting": "SK-BR-3 tumor cells", "value": 125, "unit": "nM"}, {"measurement": "tumor size", "setting": "HCC1954 cells; 25 mg/kg, 50 mg/kg and 100 mg/kg", "value": "dose-dependent reduction in tumor size"}, {"measurement": "tumor size compared with Herceptin® at 10 mg/kg", "setting": "HCC1954 cells; even at the 25 mg/kg dose for three weeks", "value": "superior to those obtained in mice treated with Herceptin®"}, {"measurement": "re-growth of tumor after the last treatment", "setting": "HCC1954 cells; mouse, in vivo", "value": "did not occur for three to seven days"}, {"measurement": "EC50", "setting": "HCC1954 tumor cells", "value": 320, "unit": "nM"}, {"measurement": "weight loss", "setting": "[1]; 25 mg/kg once daily for five consecutive days", "value": "did not show any weight loss"}, {"measurement": "body weight loss", "setting": "[1]; 50 mg/kg once daily for five consecutive days", "value": "slight, but acceptable body weight loss"}, {"measurement": "body weight loss", "setting": "[1]; 100 mg/kg once daily for five consecutive days", "value": "slight, but acceptable body weight loss"}]}
{"smiles": "C[C@@H]1C[C@H]2O[C@@H]2/C=C\\C=C\\C(=O)Cc2c(Cl)c(O)cc(O)c2C(=O)O1", "note": "[Radicicol, radicicol]", "values": [{"measurement": "IC50", "setting": "ErbB2; SK-BR-3, 18 h, read-out: IC50, degradation of ErbB2", "value": 289, "unit": "nM"}, {"measurement": "IC50", "setting": "VEGF-R2", "value": 49, "unit": "µM"}, {"measurement": "IC50 in panel of 24 kinase assays (blank cells; summary in words)", "setting": "panel of 24 kinase; a blank represents an IC50 > 50 μM", "value": "no inhibition"}, {"measurement": "inhibition in a panel of 24 kinase", "setting": "panel of 24 kinase", "value": "no significant activity"}, {"measurement": "activity in tumor xenograft models", "setting": "tumor xenograft models", "value": "inactive"}, {"measurement": "water solubility", "setting": "[2]", "value": "poorly water-soluble"}]}
{"smiles": "C[C@@H]1CC2O[C@@H]2CC/C=C/C(=O)Cc2c(Cl)c(O)cc(O)c2C(=O)O1", "note": "(stereo partly shown) [pochonin A]", "values": [{"measurement": "IC50", "setting": "HSP90 [3]", "value": 90, "unit": "nM"}, {"measurement": "inhibition in a panel of 24 kinase", "setting": "panel of 24 kinase", "value": "no significant activity"}, {"measurement": "IC50", "setting": "HSP90 [4]", "value": 90, "unit": "nM"}]}
{"smiles": "O=C1OCC/C=C/CC/C=C/C(=N/OCC(=O)N2CCCCC2)Cc2cc(O)cc(O)c21", "note": "[2a-13]", "values": [{"measurement": "EC50", "setting": "ErbB2; SK-BR-3, 18 h", "value": 12, "unit": "nM"}, {"measurement": "EC50", "setting": "SK-BR-3 tumor cells", "value": 120, "unit": "nM"}, {"measurement": "EC50", "setting": "HCC1954 tumor cells", "value": 220, "unit": "nM"}]}
